According to US5200424A, “Use of 10-membered ring lactones as lipid regulators” (priority 1990, dated 1993):

Key:
[1] = system: serum lipoproteins; assay: Lipoprotein fractionation by ultracentrifugation in rats (serum cholesterol, protein, triglycerides; hypolipemic effect); assay type: in vivo, Rat, male, strain: HOE WISKf (SPF 71); conditions: for % Change compared with control, Protein LDL / % Change compared with control, Protein VLDL / % Change compared with control, Total cholesterol HDL / % Change compared with control, Total cholesterol LDL / % Change compared with control, Total cholesterol VLDL / % Change compared with control, Triglycerides VLDL / Cholesterol HDL/LDL Based on control / Cholesterol HDL/LDL: male rat, by gavage; for % Change compared with control, Protein LDL / % Change compared with control, Protein VLDL / % Change compared with control, Total cholesterol HDL / % Change compared with control, Total cholesterol LDL / % Change compared with control, Total cholesterol VLDL / % Change compared with control, Triglycerides VLDL: 7 administrations; for Cholesterol HDL/LDL Based on control: control 1.00; for Cholesterol HDL/LDL: control 3.75
Procedure: Male rats with an initial weight above 180 g received the test product of the formula I in polyethylene glycol 400 by gavage once a day (in the morning) (0.5 ml/100 g of body weight); the relevant control group received only the same amount of solvent. The last (7th) administration took place 24 hours before blood sampling and sacrifice. There was free access to feed and water during the test. Feed was withdrawn 24 hours before the retroorbital blood sampling, which took place under light ether anesthesia before and after the treatment period (that is to say on the 1st and 8th day). Serum glutamic-oxalate transaminase (SGOT), serum glutamic-pyruvic transaminase (SGPT), alkaline phosphatase (aP), bilirubin and creatinine were determined in the serum of each individual animal. […] Immediately after the blood sampling the animals were sacrificed by distortion of the spinal column. The livers were removed, and the relative liver weight was determined. In addition, the body weight gain and the feed consumption were investigated. The statistical analysis was carried out by Student's t test.
To analyze the serum lipoproteins, after the treatment period the serum of all rats in a group was pooled.

[2] = Body weight, relative liver weight and feed consumption in rats; assay type: in vivo, Rat, male, strain: HOE WISKf (SPF 71); conditions: for % Change from control, Body weight after / % Change from control, rel. feed consumption after: male rat, after treatment
Procedure: (§1) Male rats with an initial weight above 180 g received the test product of the formula I in polyethylene glycol 400 by gavage once a day (in the morning) (0.5 ml/100 g of body weight); the relevant control group received only the same amount of solvent. The last (7th) administration took place 24 hours before blood sampling and sacrifice. There was free access to feed and water during the test. Feed was withdrawn 24 hours before the retroorbital blood sampling, which took place under light ether anesthesia before and after the treatment period (that is to say on the 1st and 8th day). Serum glutamic-oxalate transaminase (SGOT), serum glutamic-pyruvic transaminase (SGPT), alkaline phosphatase (aP), bilirubin and creatinine were determined in the serum of each individual animal. The total glycerol was measured from the pooled serum of all animals in a group as measure of the triglycerides (Eggstein, M. Kreutz, F. H.: Klin. Wschr. 44, 262 and 267 (1966); Wahlefeld, A. W., in: H. O. Bergmeier: Methoden der enzymatischen Analyse (Methods of enzymatic analysis), 2nd Edition, Volume II, Verlag Chemie 1974, Page 1878). Immediately after the blood sampling the animals were sacrificed by distortion of the spinal column. The livers were removed, and the relative liver weight was determined. In addition, the body weight gain and the feed consumption were investigated. The statistical analysis was carried out by Student's t test.

[3] = Serum enzymes, bilirubin and creatinine in rats; assay type: in vivo, Rat, male, strain: HOE WISKf (SPF 71); conditions: for Bilirubin, Final, mean / Creatinine, Final, mean / Serum enzymes SGOT, Final, mean / Serum enzymes SGPT, Final, mean / Serum enzymes aP, Final, mean / Bilirubin, Initial, mean / Creatinine, Initial, mean / Serum enzymes SGOT, Initial, mean / Serum enzymes SGPT, Initial, mean / Serum enzymes aP, Initial, mean: male rat; for Bilirubin, Final, mean / Creatinine, Final, mean / Serum enzymes SGOT, Final, mean / Serum enzymes SGPT, Final, mean / Serum enzymes aP, Final, mean: after treatment (8th day); for Bilirubin, Initial, mean / Creatinine, Initial, mean / Serum enzymes SGOT, Initial, mean / Serum enzymes SGPT, Initial, mean / Serum enzymes aP, Initial, mean: before treatment (1st day)
Procedure: as §1

[4] = system: cholesterol biosynthesis in HEP-G2 cells; assay: Cholesterol biosynthesis inhibition in HEP-G2 liver cell cultures (14C-acetate); assay type: cell-based; conditions: Homo sapiens, HepG2, standard products, 1 h preincubation, 3 h with (14C)acetate, read-out: IC50, inhibition of cholesterol biosynthesis
Procedure: Monolayers of HEP-G2 cells in liproprotein-free nutrient medium are preincubated with appropriate concentrations of the substances of the formula I to be tested for one hour. After addition of the […] biosynthesis precursor sodium (^14 C)acetate the incubation is continued for 3 hours. After this a portion of the cells is subjected to alkaline hydrolysis after addition of an internal standard of ^3 H-cholesterol. The lipids from the hydrolyzed cells are extracted with a chloroform/methanol mixture. This lipid mixture is, after addition of carrier cholesterol, fractionated by preparative thin-layer chromatography, the cholesterol band is stained and then isolated, and the amount of ^14 C-cholesterol formed from the ^14 C-precursor is determined by scintigraphy. Cellular protein was determined in an aliquot of the cells so that the amount of ^14 C-cholesterol formed from ^14 C-precursor per mg of cellular protein per unit time can be calculated. The control is used for comparison for the inhibitory effect of an added test product so that it is possible to state directly the inhibition of the cholesterol biosynthesis at a particular molar concentration of the test product in the medium. The integrity of the cell culture and the absence of cell damage owing to exposure to the product is assessed morphologically (light microscopy) and measured biochemically by determining the lactic dehydrogenase release into the incubation medium on aliquots of the cell culture.

## CCOC(=O)C(C)(C)Oc1ccc(Cl)cc1 [Clofibrate, clofibrate]
[1]; 100 mg/kg/day
  % Change compared with control, Protein LDL: +2%
  % Change compared with control, Protein VLDL: +5%
  % Change compared with control, Total cholesterol HDL: -26%
  % Change compared with control, Total cholesterol LDL: -31%
  % Change compared with control, Total cholesterol VLDL: -46%
  % Change compared with control, Triglycerides VLDL: +2%
  Cholesterol HDL/LDL Based on control: 1.08
  Cholesterol HDL/LDL: 4.03
[2]; rat, in vivo
  relative liver weight: increased

## CC[C@H](C)C(=O)O[C@H]1C[C@@H](C)C=C2C=C[C@H](C)[C@H](CC[C@@H]3C[C@@H](O)CC(=O)O3)[C@H]21 [Lovastatin, lovastatin]
[1]; 10 mg/kg/day
  % Change compared with control, Protein LDL: -16%
  % Change compared with control, Protein VLDL: -22%
  % Change compared with control, Total cholesterol HDL: -14%
  % Change compared with control, Total cholesterol LDL: -2%
  % Change compared with control, Total cholesterol VLDL: -32%
  % Change compared with control, Triglycerides VLDL: -15%
  Cholesterol HDL/LDL Based on control: 0.89
  Cholesterol HDL/LDL: 3.32
[1]; 50 mg/kg/day
  % Change compared with control, Protein LDL: -19%
  % Change compared with control, Protein VLDL: -40%
  % Change compared with control, Total cholesterol HDL: -15%
  % Change compared with control, Total cholesterol LDL: -26%
  % Change compared with control, Total cholesterol VLDL: -52%
  % Change compared with control, Triglycerides VLDL: -38%
  Cholesterol HDL/LDL Based on control: 1.14
  Cholesterol HDL/LDL: 4.29
[1]; 300 mg/kg/day
  % Change compared with control, Protein LDL: +5%
  % Change compared with control, Protein VLDL: -37%
  % Change compared with control, Total cholesterol HDL: -9%
  % Change compared with control, Total cholesterol LDL: +3%
  % Change compared with control, Total cholesterol VLDL: -49%
  % Change compared with control, Triglycerides VLDL: -34%
  Cholesterol HDL/LDL Based on control: 0.89
  Cholesterol HDL/LDL: 3.33
[1]; rat
  effect on LDL-cholesterol compared with the compound according to the invention: distinctly inferior
  effect on VLDL and HDL compared with the compound according to the invention: about identical
[3]; 10 mg/kg/day
  Bilirubin, Final, mean: 2.7 µmol/L
  Creatinine, Final, mean: 65 µmol/L
  Serum enzymes SGOT, Final, mean: 59 U/L
  Serum enzymes SGPT, Final, mean: 25 U/L
  Serum enzymes aP, Final, mean: 302 U/L
  Bilirubin, Initial, mean: 3.8 µmol/L
  Creatinine, Initial, mean: 60 µmol/L
  Serum enzymes SGOT, Initial, mean: 42 U/L
  Serum enzymes SGPT, Initial, mean: 31 U/L
  Serum enzymes aP, Initial, mean: 409 U/L
[3]; 50 mg/kg/day
  Bilirubin, Final, mean: 2.5 µmol/L
  Creatinine, Final, mean: 62 µmol/L
  Serum enzymes SGOT, Final, mean: 89 U/L
  Serum enzymes SGPT, Final, mean: 46 U/L
  Serum enzymes aP, Final, mean: 324 U/L
  Bilirubin, Initial, mean: 2.9 µmol/L
  Creatinine, Initial, mean: 60 µmol/L
  Serum enzymes SGOT, Initial, mean: 38 U/L
  Serum enzymes SGPT, Initial, mean: 31 U/L
  Serum enzymes aP, Initial, mean: 355 U/L
[3]; 300 mg/kg/day
  Bilirubin, Final, mean: 2.9 µmol/L
  Creatinine, Final, mean: 61 µmol/L
  Serum enzymes SGOT, Final, mean: 107 U/L
  Serum enzymes SGPT, Final, mean: 44 U/L
  Serum enzymes aP, Final, mean: 369 U/L
  Bilirubin, Initial, mean: 2.7 µmol/L
  Creatinine, Initial, mean: 64 µmol/L
  Serum enzymes SGOT, Initial, mean: 59 U/L
  Serum enzymes SGPT, Initial, mean: 32 U/L
  Serum enzymes aP, Initial, mean: 386 U/L
[3]; rat
  transaminase SGOT change: dose-dependent and distinctly pathological change
[2]; 10 mg/kg/day
  % Change from control, Body weight after: +4%
  % Change from control, rel. feed consumption after: +8%
[2]; 50 mg/kg/day
  % Change from control, Body weight after: 0%
  % Change from control, rel. feed consumption after: +4%
[2]; 300 mg/kg/day
  % Change from control, Body weight after: +1%
  % Change from control, rel. feed consumption after: +1%
[4]
  IC50: 0.023 µM
